Test results: US9796700B2 (Celgene CAR LLC, priority 2013, dated 2017)

What was measured:
[1] = target: MEK1 activated ERK1 (Homo sapiens (Human), UniProt P27361); experiment: Omnia continuous-read kinase assay for potency against MEK1 activated ERK1; format: biochemical; settings: MEK1 activated ERK1, WT, ATP at KM
Summary of the method: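 Apparent IC50 came from initial reaction slopes (RFU vs time) plotted against log inhibitor with a variable-slope fit. Reactions were started with ERK1 (4 nM final) added to 50 μM ATP, roughly at its appKM, and 10 μM Sox-conjugated ST17 peptide in 20 mM Tris pH 7.5, 5 mM MgCl2. Fluorescence was monitored every 71 seconds.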

[2] = target: Erk1 (Homo sapiens (Human), UniProt P27361); experiment: Protein Mass Modification Assay (intact protein MALDI); format: binding
Summary of the method: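 Human Erk1 was incubated 60 min at room temperature with a 10-fold molar excess of compound, then analysed as intact protein by MALDI with sinapinic acid matrix. The centroid mass shift versus untreated protein was divided by compound molecular weight to give percent modified protein.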

Chain of MEK1 activated ERK1 (P27361 whole entry): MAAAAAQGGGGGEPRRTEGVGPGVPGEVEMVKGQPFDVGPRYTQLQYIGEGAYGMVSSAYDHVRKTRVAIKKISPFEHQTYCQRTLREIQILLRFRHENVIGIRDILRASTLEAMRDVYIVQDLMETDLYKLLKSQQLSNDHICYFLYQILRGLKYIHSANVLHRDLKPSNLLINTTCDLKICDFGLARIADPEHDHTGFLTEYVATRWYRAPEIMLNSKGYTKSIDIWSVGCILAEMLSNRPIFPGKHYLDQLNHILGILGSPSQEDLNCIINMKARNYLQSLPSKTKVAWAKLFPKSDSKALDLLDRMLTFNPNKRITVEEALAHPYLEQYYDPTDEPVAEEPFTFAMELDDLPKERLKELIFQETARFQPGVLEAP
Chain of Erk1 (P27361 whole entry, looked up): as the sequence (P27361 whole entry) above

IC50 [1] [µM] | ERK1 Mass Mod (%) [2] | SMILES
> 1 | G (proived a mass modification ≦30%) | CC(C)=CC(=O)c1ccccc1Oc1nc(Nc2cc(C(N)=O)ccc2C)ncc1C(N)=O [Compound I-271, 2-((5-carbamoyl-2-methylphenyl)amino)-4-(2-(3-methylbut-2-enoyl)phenoxy)pyrimidine-5-carboxamide]
> 1 | G (proived a mass modification ≦30%) | CN(C)CCC(=O)Nc1ccccc1Nc1nc(N[C@H]2CCCN(C(=O)CO)C2)ncc1C(F)(F)F [Compound I-276, (S)-3-(dimethylamino)-N-(2-((2-((1-(2-hydroxyacetyl)piperidin-3-yl)amino)-5-(trifluoromethyl)pyrimidin-4-yl)amino)phenyl)propanamide]
> 1 | E (provided a mass modification of ≧70%) | C=CC(=O)Nc1cc(C)ccc1Nc1nc(N[C@H]2CCCN(S(=O)(=O)C=C)C2)ncc1C(F)(F)F [Compound I-277, (S)—N-(5-Methyl-2-((5-(trifluoromethyl)-2-((1-(vinylsulfonyl)piperidin-3-yl)amino)pyrimidin-4-yl)amino)phenyl)acrylamide]
> 1 | E (provided a mass modification of ≧70%) | C=CC(=O)Nc1cc(C)ccc1Nc1nc(N[C@@H]2CCN(S(=O)(=O)C=C)C2)ncc1C(F)(F)F [Compound I-280, (R)—N-(5-Methyl-2-((5-(trifluoromethyl)-2-((1-(vinylsulfonyl)pyrrolidin-3-yl)amino)pyrimidin-4-yl)amino)phenyl)acrylamide]
< 0.1 | E (provided a mass modification of ≧70%) | C=CC(=O)Nc1ccccc1Nc1nc(Nc2cc(OC)nc(N3CCCC3)c2)ncc1C(F)(F)F [Compound I-281, N-(2-((2-((2-Methoxy-6-(pyrrolidin-1-yl)pyridin-4-yl)amino)-5-(trifluoromethyl)pyrimidin-4-yl)amino)phenyl)acrylamide]
< 0.1 | E (provided a mass modification of ≧70%) | C=CC(=O)Nc1ccccc1Nc1nc(Nc2cc(OC)nc(OCCOC)c2)ncc1C(F)(F)F [Compound I-283, N-(2-((2-((2-Methoxy-6-(2-methoxyethoxy)pyridin-4-yl)amino)-5-(trifluoromethyl)pyrimidin-4-yl)amino)phenyl)acrylamide]
< 0.1 | E (provided a mass modification of ≧70%) | C=CC(=O)Nc1cc(OC)ccc1Nc1nc(Nc2cc(OC)ncc2C)ncc1C(F)(F)F [Compound I-284, N-(5-Methoxy-2-((2-((2-methoxy-5-methylpyridin-4-yl)amino)-5-(trifluoromethyl)pyrimidin-4-yl)amino)phenyl)acrylamide]
< 0.1 | E (provided a mass modification of ≧70%) | C=CC(=O)Nc1ccccc1Nc1nc(Nc2cc(NCCOC)nc(OC)c2)ncc1C(F)(F)F [Compound I-286, N-(2-((2-((2-Methoxy-6-((2-methoxyethyl)amino)pyridin-4-yl)amino)-5-(trifluoromethyl)pyrimidin-4-yl)amino)phenyl)acrylamide]
< 0.1 | E (provided a mass modification of ≧70%) | C=CC(=O)Nc1cc(Cl)ccc1Nc1nc(Nc2cc(OC)ncc2C)ncc1C(F)(F)F [Compound I-289, N-(5-Chloro-2-((2-((2-methoxy-5-methylpyridin-4-yl)amino)-5-(trifluoromethyl)pyrimidin-4-yl)amino)phenyl)acrylamide]
> 1 | E (provided a mass modification of ≧70%) | C=CC(=O)Nc1ccccc1Nc1nc(Nc2cc(OC)nc(N3CCN(S(C)(=O)=O)CC3)c2)ncc1C(F)(F)F [Compound I-290, N-(2-((2-((2-Methoxy-6-(4-(methylsulfonyl)piperazin-1-yl)pyridin-4-yl)amino)-5-(trifluoromethyl)pyrimidin-4-yl)amino)phenyl)acrylamide]
< 0.1 | E (provided a mass modification of ≧70%) | C=CC(=O)Nc1ccccc1Nc1nc(Nc2cc(OC)nc(N3CCS(=O)(=O)CC3)c2)ncc1C(F)(F)F [Compound I-291, N-(2-((2-((2-(1,1-Dioxidothiomorpholino)-6-methoxypyridin-4-yl)amino)-5-(trifluoromethyl)pyrimidin-4-yl)amino)phenyl)acrylamide]
< 0.1 | E (provided a mass modification of ≧70%) | C=CC(=O)Nc1cc(C)ccc1Nc1nc(Nc2cc(OC)nc(N3CCN(C(C)=O)CC3)c2)ncc1Cl [Compound I-296, N-(2-((2-((2-(4-acetylpiperazin-1-yl)-6-methoxypyridin-4-yl)amino)-5-chloropyrimidin-4-yl)amino)-5-methylphenyl)acrylamide]
< 0.1 | E (provided a mass modification of ≧70%) | C=CC(=O)Nc1cc(OC)ccc1Nc1nc(Nc2cc(OC)nc(N3CCN(C(C)=O)CC3)c2)ncc1Cl [Compound I-297, N-(2-((2-((2-(4-acetylpiperazin-1-yl)-6-methoxypyridin-4-yl)amino)-5-chloropyrimidin-4-yl)amino)-5-methoxyphenyl)acrylamide]
> 1 | G (proived a mass modification ≦30%) | C=CC(=O)Nc1cccc(Nc2nc(Nc3ccc(N4CCN(C(C)=O)CC4)cc3OC)ncc2Cl)c1 [Compound I-298, N-(3-((2-((4-(4-acetylpiperazin-1-yl)-2-methoxyphenyl)amino)-5-chloropyrimidin-4-yl)amino)phenyl)acrylamide]
> 1 | E (provided a mass modification of ≧70%) | C=CC(=O)Nc1ccccc1Nc1nc(Nc2ccc(OCCCNC(=O)CCCC(=O)NCCCOCCOCCOCCCNC(=O)CCCC[C@H]3SC[C@H]4NC(=O)N[C@H]43)cc2OC)ncc1Cl [Compound I-302, N^1-(3-(4-((4-((2-acrylamidophenyl)amino)-5-chloropyrimidin-2-yl)amino)-3-methoxyphenoxy)propyl)-N^5-(15-oxo-19-((3aR,4R,6aS)-2-oxohexahydro-1H-thieno[3,4-d]imidazol-4-yl)-4,7,10-trioxa-14-azanonadecyl)glutaramide]
> 1 | E (provided a mass modification of ≧70%) | C=CC(=O)Nc1ccccc1Nc1nc(N[C@H]2CCCN(C(=O)CCCC(=O)NCCCOCCOCCOCCCNC(=O)CCCC[C@@H]3SC[C@@H]4NC(=O)N[C@@H]43)C2)ncc1Cl [Compound I-303, 5-((S)-3-((4-((2-acrylamidophenyl)amino)-5-chloropyrimidin-2-yl)amino)piperidin-1-yl)-5-oxo-N-(15-oxo-19-((3aS,4S,6aR)-2-oxohexahydro-1H-thieno[3,4-d]imidazol-4-yl)-4,7,10-trioxa-14-azanonadecyl)pentanamide]
< 0.1 | G (proived a mass modification ≦30%) | NC(=O)c1ccccc1Nc1nc(N[C@H]2CCCN(C(=O)CO)C2)ncc1C(F)(F)F [Compound I-307, (S)-2-((2-((1-(2-hydroxyacetyl)piperidin-3-yl)amino)-5-(trifluoromethyl)pyrimidin-4-yl)amino)benzamide]
> 1 | G (proived a mass modification ≦30%) | CC(=O)N1CCC[C@H](Nc2ncc(C(F)(F)F)c(N[C@@H]3[C@H](C(N)=O)[C@H]4C=C[C@@H]3C4)n2)C1 [Compound I-309, (1R,2R,3S,4S)-3-((2-(((S)-1-acetylpiperidin-3-yl)amino)-5-(trifluoromethyl)pyrimidin-4-yl)amino)bicyclo[2.2.1]hept-5-ene-2-carboxamide]
< 0.1 | G (proived a mass modification ≦30%) | CC(C)S(=O)(=O)c1ccccc1Nc1nc(N[C@H]2CCCN(C(=O)CO)C2)ncc1C(F)(F)F [Compound I-310, (S)-2-hydroxy-1-(3-((4-((2-(isopropylsulfonyl)phenyl)amino)-5-(trifluoromethyl)pyrimidin-2-yl)amino)piperidin-1-yl)ethanone]
> 1 | G (proived a mass modification ≦30%) | COc1cc(N2CCOCC2)ccc1Nc1ncc(N)c(Nc2ccccc2N)n1 [Compound I-312, N^4-(2-aminophenyl)-N^2-(2-methoxy-4-morpholinophenyl)pyrimidine-2,4,5-triamine]
< 0.1 | G (proived a mass modification ≦30%) | CCC(=O)Nc1ccccc1Nc1nc(Nc2ccc3c(c2)CCCC(=O)N3CCCN)ncc1Cl [Compound I-314, N-(2-((2-((1-(3-aminopropyl)-2-oxo-2,3,4,5-tetrahydro-1H-benzo[b]azepin-7-yl)amino)-5-chloropyrimidin-4-yl)amino)phenyl)propionamide]
> 1 | G (proived a mass modification ≦30%) | CCC(=O)Nc1ccccc1Nc1nc(Nc2ccc3c(c2OC)CCCC(=O)N3CC)ncc1Cl [Compound I-315, N-(2-((5-chloro-2-((1-ethyl-6-methoxy-2-oxo-2,3,4,5-tetrahydro-1H-benzo[b]azepin-7-yl)amino)pyrimidin-4-yl)amino)phenyl)propionamide]
< 0.1 | G (proived a mass modification ≦30%) | CCC(=O)Nc1ccccc1Nc1nc(N[C@H]2CCCN(C(C)=O)C2)ncc1C(F)(F)F [Compound I-317, (S)—N-(2-((2-((1-acetylpiperidin-3-yl)amino)-5-(trifluoromethyl)pyrimidin-4-yl)amino)phenyl)propionamide]

SMILES | IC50 [1] [µM] | ERK1 Mass Mod (%) [2]
C=CC(=O)Nc1cc(C)ccc1Nc1nc(N[C@@H]2CCCN(S(=O)(=O)C=C)C2)ncc1C(F)(F)F [Compound I-278, (R)—N-(5-Methyl-2-((5-(trifluoromethyl)-2-((1-(vinylsulfonyl)piperidin-3-yl)amino)pyrimidin-4-yl)amino)phenyl)acrylamide] | > 1 | F (provided a mass modification of 31-69%)
